Data: ChEMBL document CHEMBL1125108 (J Med Chem, 1990)

Assays:
Type in all cases: tissue-based
[1] = target: D(1A) dopamine receptor (Rattus norvegicus, UniProt P18901); assay: Binding affinity against Dopamine receptor D1 using […] in rat brain
[2] = target: D(2) dopamine receptor (Rattus norvegicus, UniProt P61169); assay: Binding affinity for Dopamine receptor D2 using [3H]spiperone in rat brain
[3] = target: Muscarinic acetylcholine receptor; assay: Binding affinity was determined against Muscarinic acetylcholine receptor using [3H]QNB as radioligand in rat brain.

D(2) dopamine receptor, sequence (P61169 whole entry): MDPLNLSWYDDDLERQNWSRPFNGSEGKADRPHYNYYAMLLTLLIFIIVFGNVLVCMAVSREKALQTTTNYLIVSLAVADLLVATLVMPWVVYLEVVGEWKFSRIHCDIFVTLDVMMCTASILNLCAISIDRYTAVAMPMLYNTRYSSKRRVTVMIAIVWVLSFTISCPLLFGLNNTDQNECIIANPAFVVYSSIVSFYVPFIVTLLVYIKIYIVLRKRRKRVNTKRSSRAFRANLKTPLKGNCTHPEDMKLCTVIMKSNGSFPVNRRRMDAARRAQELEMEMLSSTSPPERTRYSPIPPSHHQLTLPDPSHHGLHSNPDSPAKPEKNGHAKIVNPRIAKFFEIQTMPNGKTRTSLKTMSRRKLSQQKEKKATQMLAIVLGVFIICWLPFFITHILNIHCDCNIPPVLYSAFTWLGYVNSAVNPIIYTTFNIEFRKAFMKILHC
D(1A) dopamine receptor, sequence (P18901 whole entry): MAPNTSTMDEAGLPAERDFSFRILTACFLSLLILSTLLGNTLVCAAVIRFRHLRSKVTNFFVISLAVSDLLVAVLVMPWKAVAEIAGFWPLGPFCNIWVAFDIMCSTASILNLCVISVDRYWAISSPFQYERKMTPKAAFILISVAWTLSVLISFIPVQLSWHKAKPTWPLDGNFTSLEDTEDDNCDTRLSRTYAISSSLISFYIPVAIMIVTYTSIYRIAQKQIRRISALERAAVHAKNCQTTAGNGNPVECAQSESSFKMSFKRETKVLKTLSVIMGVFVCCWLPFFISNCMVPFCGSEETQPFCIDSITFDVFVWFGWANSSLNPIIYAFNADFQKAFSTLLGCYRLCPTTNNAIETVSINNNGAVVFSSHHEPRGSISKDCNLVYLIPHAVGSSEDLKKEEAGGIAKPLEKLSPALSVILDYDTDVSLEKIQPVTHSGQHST

| IC50 [1] | IC50 [2] | IC50 [3] | Compound |
| --- | --- | --- | --- |
| 8 nM | 27 nM | 330 nM | C=C1c2ccccc2C=C(N2CCN(C)CC2)c2cc(Cl)ccc21 |
| 133 nM | > 10000 nM | 297 nM | CC(C)=C1c2ccccc2C=C(N2CCN(C)CC2)c2cc(Cl)ccc21 |
| – | > 10000 nM | – | CN1CCN(C2=Nc3ccccc3Nc3ccccc32)CC1 |
| 21 nM | 305 nM | 150 nM | C=C1c2ccccc2C=C(N2CCN(C)CC2)c2ccccc21 |
| 540 nM | 4750 nM | 415 nM | CC(C)=C1c2ccccc2C=C(N2CCN(C)CC2)c2ccccc21 |
| 443 nM | 5000 nM | 1750 nM | CC(C)=C1c2ccc(Cl)cc2C=C(N2CCN(C)CC2)c2ccccc21 |
| 51 nM | 300 nM | 248 nM | C=C1c2ccc(Cl)cc2C=C(N2CCN(C)CC2)c2ccccc21 |
